According to patent US20130198900A1, “"THIAMINE PYROPHOSPHATE (TPP) RIBOSWITCH MUTANTS PRODUCING VITAMIN B1 ENRICHED FOOD AND FEED CROPS"” (BEN-GURION UNIVERSITY OF THE NEGEV, priority 2010, published 2013):

Assays:
[1] = test system: AtTHIC promoter and AtTHIC 3' UTR (TPP riboswitch); experiment: Dual reporter assay (RFP under AtTHIC promoter, YFP fused to AtTHIC 3' UTR) with exogenous TPP; assay type: in vivo, Arabidopsis
Description: Arabidopsis thaliana plants (ecotype Columbia, Col-0) were grown on soil in climate rooms (22° C.; 70% humidity; 16/8 hr light/dark for long day conditions and 10/14 hr light/dark for short day conditions). The Atthi1 and Atthic mutants were obtained from the European Arabidopsis Stock Center (NASC; http://arabidopsis.info/; stock ID: N3375; salk—011114 respectively). For experiments involving TPP addition, plants were grown for 14 days in petri dishes on MS media (basal salt mixture; Duchefa, Haarlem, The Netherlands) with 1% sucrose and 1% agar, to which TPP (Sigma, Cat. no. C8754, water soluble) was added up to the indicated concentration.
In order to determine whether the diurnal changes of AtTHIC expression are caused by the light or by the circadian clock, Arabidopsis plants were subjected to a circadian assay (see material and methods above). […] In the growth conditions used herein, the transcripts reached their highest expression level at the beginning of the dark period and their lowest expression level shortly after the beginning of the light period. […] To separate between these two modes of gene control, a dual reporter assay was developed, allowing observing the in vivo activity of both elements. Expression of one reporter gene, YELLOW FLUORESCENT PROTEIN(YFP) was under the control of a constitutive promoter (CaMV-35S) and fused to the AtTHIC 3′ UTR. A second reporter gene, RED FLUORESCENT PROTEIN(RFP) was placed under the regulation of the native AtTHIC promoter and fused to the NOS terminator (FIG. 4). These two reporters were introduced into the Arabidopsis wild type (wt) and thi1 mutant (deficient in thiamine biosynthesis), and their expression was monitored under various conditions. Wild type plants harboring this double reporter genes system were subjected to a circadian assay.
The expression level of the above-described reporter genes (YFP and RFP) in fully grown plants was also determined. […]

[2] = test system: AtTHIC gene; experiment: AtTHIC transcript levels (qPCR) under bacimethrin treatment in wt, upf1 and upf3 plants; assay type: in vivo, Arabidopsis; conditions: 1 mM bacimethrin
Description: Quantitative Real Time PCR (qPCR) gene expression analysis was performed with three biological replicates using gene/variant-specific qPCR oligonucleotide-pairs, designed with Primer Express software (Applied Biosystems). AtUBIQUITIN C (At5g25760) was used as endogenous control for all analyses. Fixed amount of DNAse-treated total RNA was reverse transcribed using AMV Reverse Transcriptase (EurX Ltd., Poland). RT-PCR reactions were tracked on an ABI 7300 instrument (Applied Biosystems) using the PlatinumR SYBR SuperMix (Invitrogen). Each sample was PCR-amplified from the same amount of cDNA template in triplicate reactions. Following an initial step in the thermal cycler for 10 min at 95° C., PCR amplification proceeded for 40 cycles of 15 s at 95° C. and 60 s at 60° C., and completed by melting curve analysis to confirm specificity of PCR products. The baseline and threshold values were adjusted according to manufacturer's instructions.
Given the importance of the AtTHIC gene for thiamine biosynthesis, its mode of regulation, particularly the nature of the high turnover of the intron-spliced variant compared to the intron-retained variant was further examined. Since the spliced variant contains two introns in its 3′ UTR, its instability could be due to the activity of the non-sense mediated decay (NMD) pathway (Kertesz S et al., 2006. Nucleic Acids Res 34, 6147-6157). Thus, the level of this transcript was measured in the background of upf1 and upf3 mutants of Arabidopsis affected in the NMD pathway (Arciga-Reyes L et al., 2006. Plant J 47, 480-489). Transcript level was examined in both normal and low TPP concentrations (FIG. 9). Lowering the plant endogenous TPP levels in these experiments was obtained using 1 mM bacimethrin, an anti-metabolite that inhibits thiamine production (Reddick et al., 2001; ibid). In wt plants as well as in the upf1 and upf3 mutants, bacimethrin treatment (preventing thiamine accumulation) caused the upregulation of the total AtTHIC transcript and of its intron-retention variant (FIGS. 9A and 9B, respectively). […] Thus, the accumulation of this transcript in the upf mutants can be explained by an increase in its stability since the NMD trans-factors are missing. It should also be noticed, that due to the accumulation of the intron-spliced variant under bacimethrin treatment, the total AtTHIC transcripts are more abundant in the upf mutants.

[3] = test system: thiamine biosynthetic enzymes; conditions: Reddick et al., 2001; cited from earlier work
[4] = test system: thiamine biosynthesis; experiment: Bacimethrin treatment of wild type plants, thiamine and TPP levels by HPLC; assay type: in vivo, Arabidopsis; conditions: 1 mM in growth medium, wild type plants (FIG. 26)
Description: Bacimethrin is a naturally occurring thiamine anti-metabolite. It is converted to 2′-methoxy-thiamine pyrophosphate by the thiamine biosynthetic enzymes at a rate that is 6 times faster than the rate of conversion of the natural substrate HMP to thiamine pyrophosphate (Reddick J J et al., 2001. Bioorg Med Chem Lett 11, 2245-2248). Since bacimethrin is a thiamine biosynthesis inhibitor in bacteria, its potency in plants was examined.
Samples (100 mg) were harvested from three weeks old plants grown in short day conditions at the end of the light period, and immediately frozen in liquid nitrogen. The plant samples were then grinded followed by the addition of 400 μl of 0.1M HCl, and sonicated in a water bath for 30 min. The resulting extracts were centrifuged at 14,000 rpm (in a regular bench centrifuge) for 10 min. […] Thiochrome derivatives of thiamine, TMP, and TPP were detected by fluorescence at excitation 370 nm and emission 430 nm. Different concentrations of thiamine, thiamine monophosphate (TMP) and thiamine pyrophosphate (TPP) standards were analyzed using the same extraction procedure and chromatographic conditions. […] For quantification of the samples, the peak areas of the samples were compared to the corresponding standard curve.

| Compound | RFP expression directed by AtTHIC promoter ([1]; Atthi1 mutant plants) | YFP expression regulated by AtTHIC 3' UTR ([1]; Atthi1 mutant plants) | reporter gene expression (RFP and YFP) ([1]; wt plants with double reporter gene system, increasing TPP concentrations) | AtTHIC intron-spliced variant transcript ([2]; upf1 and upf3 mutants (FIG. 9C)) | AtTHIC intron-spliced variant transcript ([2]; wt plants (FIG. 9C)) | total AtTHIC transcript ([2]; wt plants and upf1, upf3 mutants (FIG. 9A)) | AtTHIC intron-retention variant transcript ([2]; wt plants and upf1, upf3 mutants (FIG. 9B)) | rate of conversion to 2'-methoxy-thiamine pyrophosphate relative to conversion of natural substrate HMP to thiamine pyrophosphate [3] | TPP levels [4] | thiamine levels [4] |
| --- | --- | --- | --- | --- | --- | --- | --- | --- | --- | --- |
| Cc1ncc(C[n+]2csc(CCO[P@](=O)(O)OP(=O)(O)O)c2C)c(N)n1 [TPP, thiamine pyrophosphate] | did not respond | regulated YFP expression in a TPP dependent manner | Only slight changes | – | – | – | – | – | – | – |
| COc1ncc(CO)c(N)n1 [bacimethrin] | – | – | – | did not decrease | down-regulation | upregulation | upregulation | 6 times faster | reduced | increased |
